How the values were obtained:
[1] = test system: ABC-DLBCL cell line OCI-Ly10 (MYD88-L265P, CD79A ITAM); assay: In vivo tumor growth inhibition in ABC-DLBCL tumor model (OCI-Ly10 xenograft); conditions: OCI-Ly10 in female SCID Beige mice; 21 continuous days qd po; Compound A 50 mg/kg, venetoclax 75 mg/kg
Method: Female SCID Beige mice were implanted with the ABC-DLBCL cell line OCI-Ly10, which harbors TLR (MYD88-L265P) and BCR (CD79A ITAM) pathway activating mutations. The mice were treated with Compound A (50 mg/kg, qd, po, suspension in 0.5% Tween 20 and 0.25% hydroxyethyl cellulose), venetoclax (75 mg/kg, qd, po, solution in 60% phosal 50PG, 30% PEG 400, and 10% ethanol) or the combination for 21 continuous days.
After the 21-day drug treatment period, the mice were given a 19-day dosing holiday. […] After the 19-day drug holiday, dosing of the respective drug treatments was reinstated to each cohort.

[2] = test system: SU-DHL-2 cells (MYD88-S222R); assay: In vivo tumor growth inhibition in ABC-DLBCL tumor model (SU-DHL-2 xenograft); conditions: SU-DHL-2 in female SCID Beige mice; 27 continuous days qd po; Compound A/CA-4948 100 mg/kg, venetoclax 75 mg/kg
Method: Female SCID Beige mice were implanted with SU-DHL-2 cells which harbor MYD88-S222R pathway activating mutations. The mice were treated with Compound A (100 mg/kg, qd, po, suspension in 0.5% Tween 20 and 0.25% hydroxyethyl cellulose), venetoclax (75 mg/kg, qd, po, solution in 60% phosal 50PG, 30% PEG 400, and 10% ethanol) or the combination for 27 continuous days.
All in life data acquisition, including body weight, tumor length, tumor diameter, tumor ulceration, clinical signs and animal mortality was collected in Study Director. Tumor ulceration was scored on a 6 level system with severity of 4 or higher requiring attention. At the end of the study (24 hours after the last dose), all surviving animals were examined externally for possible clinical abnormalities or adverse clinical signs, weighed and tumor measurements were taken for the last time.

OCI-LY3 = assay: ABC-DLBCL MYD88-L265P xenograft tumor model, OCI-LY3; type: in vivo
OCI-LY10 = assay: ABC-DLBCL MYD88-L265P xenograft tumor model, OCI-LY10 (dose response); type: in vivo
ABC-DLBCL PDX tumors = ABC-DLBCL PDX tumors (MYD88 and CD79B double mutants); type: in vivo; conditions: activating mutations in TLR/IL-1R and BCR pathways (MYD88 and CD79B double mutants)

Compound | tumor growth inhibition (TGI) [1] [%] | TGI % (Day 28) [2] [%] | efficacy in xenograft tumor model (OCI-LY3) | efficacy in xenograft tumor model (OCI-LY10) | efficacy in PDX tumors (ABC-DLBCL PDX tumors)
Cc1cc(-c2nc(C(=O)Nc3cc4oc(N5CCOCC5)nc4nc3N3CC[C@@H](O)C3)co2)ccn1 [Compound A] | 63 | 66 | dose-dependent efficacy | dose-dependent efficacy | efficacious
CC1(C)CCC(CN2CCN(c3ccc(C(=O)NS(=O)(=O)c4ccc(NCC5CCOCC5)c([N+](=O)[O-])c4)c(Oc4cnc5[nH]ccc5c4)c3)CC2)=C(c2ccc(Cl)cc2)C1 [venetoclax, reference compound] | 71 |  |  |  | 

— patent publication US10758518B2, “Compounds and compositions for treating hematological disorders” (Curis, Inc., priority 2017, dated 2020)
